Test results from ChEMBL document CHEMBL1201862, “PubChem BioAssay data set” (2004).
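The compound was tested at five concentrations on cells cultured in 96-well plates, with a 48-hour exposure period. Abbreviation: GI50, concentration required for 50% inhibition of growth.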 Calls of active or inactive are those of the source. Rule as the data show it: active = GI50 up to about 1.1 µM and inactive = higher.

Tests used:
Test in all cases: NCI-60 cell line screen, 48 h
CCRF-CEM = tested on: CCRF-CEM
U-251 = tested on: U-251
SK-MEL-2 = tested on: SK-MEL-2
K562 = tested on: K562
A549 = tested on: A549
HCC 2998 = tested on: HCC 2998
RPMI-8226 = tested on: RPMI-8226
NCI-H226 = tested on: NCI-H226
CAKI-1 = tested on: CAKI-1
Malme-3M = tested on: Malme-3M
786-0 = tested on: 786-0
NCI-H23 = tested on: NCI-H23
MOLT-4 = tested on: MOLT-4
HT-29 = tested on: HT-29
SK-MEL-28 = tested on: SK-MEL-28
OVCAR-4 = tested on: OVCAR-4
Hs-578T = tested on: Hs-578T
NCI/ADR-RES = tested on: NCI/ADR-RES
MDA-MB-435 = tested on: MDA-MB-435
MDA-N = tested on: MDA-N

Measured: GI50

CCN1c2ccccc2C(C(SC)S(=O)(=O)c2ccc(C)cc2)c2c1[nH]c(=O)n(C)c2=O (configuration not stated)
inactive: CCRF-CEM > 100 µM | U-251 > 100 µM | SK-MEL-2 71.1 µM | K562 > 100 µM | A549 > 100 µM | HCC 2998 > 100 µM | RPMI-8226 > 100 µM | NCI-H226 > 100 µM | CAKI-1 > 100 µM | Malme-3M 88.1 µM | 786-0 > 100 µM | NCI-H23 > 100 µM | MOLT-4 94 µM | HT-29 > 100 µM | SK-MEL-28 > 100 µM | OVCAR-4 > 100 µM

CSc1nc(SC)c2c(C#N)n[nH]c2n1
inactive: CCRF-CEM > 100 µM | U-251 > 100 µM | SK-MEL-2 > 100 µM | K562 > 100 µM | A549 > 100 µM | HCC 2998 > 100 µM | RPMI-8226 > 100 µM | NCI-H226 > 100 µM | CAKI-1 > 100 µM | Malme-3M > 100 µM | 786-0 > 100 µM | NCI-H23 > 100 µM | MOLT-4 > 100 µM | HT-29 > 100 µM | SK-MEL-28 > 100 µM | OVCAR-4 > 100 µM

c1ccc2c(c1)nc1n2sc2nc3ccccc3n21
inactive: CCRF-CEM > 100 µM | U-251 > 100 µM | SK-MEL-2 > 100 µM | Hs-578T > 100 µM | K562 > 100 µM | A549 > 100 µM | HCC 2998 > 100 µM | RPMI-8226 > 100 µM | NCI-H226 > 100 µM | CAKI-1 > 100 µM | 786-0 > 100 µM | NCI-H23 > 100 µM | NCI/ADR-RES > 100 µM | MOLT-4 > 100 µM | HT-29 > 100 µM | SK-MEL-28 > 100 µM | OVCAR-4 > 100 µM | MDA-MB-435 > 100 µM

Cc1c(-c2cc(-c3ccccc3)n[nH]c2=O)c2ccccc2n1C
inactive: CCRF-CEM > 100 µM | U-251 > 100 µM | SK-MEL-2 > 100 µM | K562 > 100 µM | A549 > 100 µM | HCC 2998 > 100 µM | RPMI-8226 76.2 µM | NCI-H226 > 100 µM | CAKI-1 > 100 µM | Malme-3M > 100 µM | 786-0 > 100 µM | NCI-H23 > 100 µM | MOLT-4 > 100 µM | HT-29 > 100 µM | SK-MEL-28 > 100 µM | OVCAR-4 > 100 µM

CCCCC(CCCC)=NNC(=S)SC
inactive: U-251 29.6 µM | SK-MEL-2 36.4 µM | Hs-578T 44.2 µM | K562 29.6 µM | A549 26.1 µM | HCC 2998 15.4 µM | NCI-H226 16.1 µM | Malme-3M 13.1 µM | 786-0 34.8 µM | NCI-H23 33.7 µM | NCI/ADR-RES 25.1 µM | MOLT-4 18 µM | HT-29 33.6 µM | SK-MEL-28 37.2 µM | OVCAR-4 18.9 µM | MDA-MB-435 17.9 µM

Cc1cc(N(CCC#N)CCC#N)ccc1/C=C\C(=O)Nc1ccccc1
inactive: CCRF-CEM > 100 µM | U-251 > 100 µM | SK-MEL-2 > 100 µM | K562 1.37 µM | A549 > 100 µM | HCC 2998 13.6 µM | RPMI-8226 > 100 µM | NCI-H226 > 100 µM | CAKI-1 > 100 µM | Malme-3M > 100 µM | 786-0 > 100 µM | NCI-H23 > 100 µM | MOLT-4 > 100 µM | HT-29 5.92 µM | SK-MEL-28 > 100 µM | OVCAR-4 62.4 µM

CCOC(=O)C1=C(C)Nc2ccccc2S1
inactive: CCRF-CEM > 100 µM | U-251 > 100 µM | SK-MEL-2 > 100 µM | K562 > 100 µM | A549 > 100 µM | HCC 2998 > 100 µM | RPMI-8226 48.3 µM | NCI-H226 > 100 µM | CAKI-1 > 100 µM | Malme-3M > 100 µM | 786-0 > 100 µM | NCI-H23 > 100 µM | MOLT-4 46.1 µM | HT-29 > 100 µM | SK-MEL-28 > 100 µM | OVCAR-4 > 100 µM

C/C(CN1C(=O)c2ccccc2C1=O)=N\NS(=O)(=O)c1cccc(C(=O)O)c1
inactive: CCRF-CEM > 100 µM | U-251 > 100 µM | SK-MEL-2 > 100 µM | K562 > 100 µM | A549 > 100 µM | HCC 2998 > 100 µM | RPMI-8226 > 100 µM | NCI-H226 > 100 µM | CAKI-1 > 100 µM | Malme-3M > 100 µM | 786-0 > 100 µM | NCI-H23 > 100 µM | MOLT-4 > 100 µM | HT-29 > 100 µM | SK-MEL-28 > 100 µM | OVCAR-4 > 100 µM

C=C1C(=O)O[C@H]2C1C[C@@H](O)[C@@]1(C)OC1CC[C@@]1(C)O[C@H]21 (some centres not stated)
inactive: CCRF-CEM 5.15 µM | U-251 > 100 µM | SK-MEL-2 17.6 µM | Hs-578T 28.6 µM | K562 9.33 µM | A549 > 100 µM | HCC 2998 15.2 µM | RPMI-8226 8.95 µM | CAKI-1 16.7 µM | Malme-3M 11.7 µM | 786-0 22.1 µM | NCI-H23 17 µM | NCI/ADR-RES 20.7 µM | MOLT-4 5.94 µM | HT-29 32.8 µM | SK-MEL-28 21.1 µM | OVCAR-4 13.9 µM | MDA-MB-435 21 µM

COC(=O)[C@@H]1CCCCC[C@H]2C(CO)=C(C)C(=O)C12 (some centres not stated)
inactive: CCRF-CEM > 100 µM | U-251 > 100 µM | SK-MEL-2 > 100 µM | K562 > 100 µM | A549 > 100 µM | HCC 2998 > 100 µM | RPMI-8226 > 100 µM | NCI-H226 99.1 µM | CAKI-1 > 100 µM | Malme-3M > 100 µM | 786-0 > 100 µM | NCI-H23 > 100 µM | MOLT-4 > 100 µM | HT-29 > 100 µM | SK-MEL-28 > 100 µM | OVCAR-4 > 100 µM

CCc1cccc(C(C)C)c1NC(=O)C(=O)CC(=O)c1c(C)[n+]([O-])c2ccccc2[n+]1[O-]
inactive: CCRF-CEM > 100 µM | U-251 > 100 µM | SK-MEL-2 > 100 µM | K562 > 100 µM | A549 > 100 µM | HCC 2998 > 100 µM | RPMI-8226 30.1 µM | NCI-H226 > 100 µM | CAKI-1 > 100 µM | Malme-3M > 100 µM | 786-0 > 100 µM | NCI-H23 > 100 µM | MOLT-4 56.1 µM | SK-MEL-28 > 100 µM | OVCAR-4 > 100 µM

O=C1C[C@@H]2[C@@H](C=CC23CC3)N1O
inactive: CCRF-CEM > 100 µM | U-251 > 100 µM | SK-MEL-2 > 100 µM | K562 > 100 µM | A549 > 100 µM | HCC 2998 > 100 µM | RPMI-8226 > 100 µM | NCI-H226 > 100 µM | CAKI-1 > 100 µM | Malme-3M > 100 µM | 786-0 > 100 µM | NCI-H23 > 100 µM | MOLT-4 > 100 µM | HT-29 > 100 µM | SK-MEL-28 > 100 µM | OVCAR-4 > 100 µM

O=c1[nH]c(=O)n(C2CC(O)C(CO)O2)cc1OS(=O)(=O)C(F)(F)F (configuration not stated)
inactive: CCRF-CEM > 100 µM | U-251 > 100 µM | SK-MEL-2 > 100 µM | K562 > 100 µM | A549 > 100 µM | HCC 2998 > 100 µM | RPMI-8226 > 100 µM | NCI-H226 > 100 µM | CAKI-1 > 100 µM | Malme-3M > 100 µM | 786-0 > 100 µM | NCI-H23 > 100 µM | MOLT-4 > 100 µM | HT-29 > 100 µM | SK-MEL-28 > 100 µM | OVCAR-4 > 100 µM

O=C1C2=Cc3ccccc3OC2(O)Oc2cc(O)ccc21 (configuration not stated)
inactive: CCRF-CEM 27.5 µM | U-251 > 100 µM | SK-MEL-2 > 100 µM | K562 > 100 µM | A549 > 100 µM | HCC 2998 > 100 µM | MDA-N > 100 µM | RPMI-8226 > 100 µM | NCI-H226 > 100 µM | CAKI-1 > 100 µM | Malme-3M > 100 µM | 786-0 > 100 µM | NCI-H23 > 100 µM | NCI/ADR-RES > 100 µM | MOLT-4 > 100 µM | HT-29 > 100 µM | SK-MEL-28 > 100 µM | MDA-MB-435 > 100 µM

CC(=O)OCC1=C(C)C(OC(=O)C(OC(C)=O)[C@@H](NC(=O)c2ccccc2)c2ccccc2)CCC1(C)C (some centres not stated)
inactive: CCRF-CEM > 100 µM | U-251 > 100 µM | K562 > 100 µM | A549 > 100 µM | HCC 2998 > 100 µM | MDA-N > 100 µM | RPMI-8226 > 100 µM | NCI-H226 > 100 µM | CAKI-1 > 100 µM | Malme-3M > 100 µM | 786-0 > 100 µM | NCI-H23 > 100 µM | NCI/ADR-RES > 100 µM | MOLT-4 > 100 µM | HT-29 > 100 µM | SK-MEL-28 > 100 µM | OVCAR-4 > 100 µM | MDA-MB-435 > 100 µM

NCCCNCCCCN(CCCN)/[N+]([O-])=N\O
inactive: CCRF-CEM > 100 µM | SK-MEL-2 > 100 µM | K562 > 100 µM | A549 > 100 µM | HCC 2998 > 100 µM | RPMI-8226 29.8 µM | NCI-H226 > 100 µM | CAKI-1 > 100 µM | Malme-3M > 100 µM | 786-0 > 100 µM | NCI-H23 > 100 µM | MOLT-4 > 100 µM | HT-29 > 100 µM | SK-MEL-28 > 100 µM | OVCAR-4 > 100 µM
